The source of these data is ChEMBL document CHEMBL5678810.

Experiment [1] deals with Cyclin-dependent kinase-like 1 (Homo sapiens) (UniProt Q00532). Briefly: Inhibition of T7 bacteriophage fused human CDKL1 at 10 uM by KINOMEscan analysis relative to control.
Experiment [2] deals with 3-phosphoinositide-dependent protein kinase 1 (Homo sapiens) (UniProt O15530). As to the kind of experiment: Inhibition of T7 bacteriophage fused human PDPK1 at 10 uM by KINOMEscan analysis relative to control.
In experiment [3] the target is Serine/threonine-protein kinase 25 (Homo sapiens) (UniProt O00506). Briefly: Inhibition of T7 bacteriophage fused human YSK1 at 10 uM by KINOMEscan analysis relative to control.
Experiment [4] concerns the target Ephrin type-B receptor 1 (Homo sapiens) (UniProt P54762). As to the kind of experiment: Inhibition of T7 bacteriophage fused human EPHB1 at 10 uM by KINOMEscan analysis relative to control; values are per cent of control.
In experiment [5] the test system is Tyrosine-protein kinase ABL1 (Homo sapiens), P00519 [F317L]. Briefly: Inhibition of T7 bacteriophage fused human nonphosphorylated ABL1 F317L mutant at 10 uM by KINOMEscan analysis relative to control.
The target of experiment [6] is Serine/threonine-protein kinase Nek9 (Homo sapiens) (UniProt Q8TD19). Briefly: Inhibition of T7 bacteriophage fused human NEK9 at 10 uM by KINOMEscan analysis relative to control.
For experiment [7], the target named is Leukocyte tyrosine kinase receptor (Homo sapiens) (UniProt P29376). Briefly: Inhibition of T7 bacteriophage fused human LTK at 10 uM by KINOMEscan analysis relative to control; values are per cent of control.
Experiment [8] deals with MAP/microtubule affinity-regulating kinase 4 (Homo sapiens) (UniProt Q96L34). As to the kind of experiment: Inhibition of T7 bacteriophage fused human MARK4 at 10 uM by KINOMEscan analysis relative to control; values are per cent of control.
In experiment [9] the target is Mitogen-activated protein kinase kinase kinase 1 (Homo sapiens) (UniProt Q13233). As to the kind of experiment: Inhibition of T7 bacteriophage fused human MAP3K1 at 10 uM by KINOMEscan analysis relative to control; values are per cent of control.
Experiment [10] has as its system Phosphatidylinositol 4,5-bisphosphate 3-kinase catalytic subunit alpha isoform (Homo sapiens), P42336 [E542K]. Briefly: Inhibition of T7 bacteriophage fused human PIK3CA E542K mutant at 10 uM by KINOMEscan analysis relative to control.
Experiment [11] has as its target Tyrosine-protein kinase CSK (Homo sapiens) (UniProt P41240). As to the kind of experiment: Inhibition of T7 bacteriophage fused human CSK at 10 uM by KINOMEscan analysis relative to control; values are per cent of control.
The target of experiment [12] is Serine/threonine-protein kinase D2 (Homo sapiens) (UniProt Q9BZL6). Briefly: Inhibition of T7 bacteriophage fused human PRKD2 at 10 uM by KINOMEscan analysis relative to control.
The subject of experiment [13] is Receptor-type tyrosine-protein kinase FLT3 (Homo sapiens), P36888 [D835H]. Briefly: Inhibition of T7 bacteriophage fused human FLT3 D835H mutant at 10 uM by KINOMEscan analysis relative to control.
In experiment [14] the target is Serine/threonine-protein kinase PRP4 homolog (Homo sapiens) (UniProt Q13523). Briefly: Inhibition of T7 bacteriophage fused human PRP4 at 10 uM by KINOMEscan analysis relative to control.
In experiment [15] the target is Tyrosine-protein kinase Lyn (Homo sapiens) (UniProt P07948). Briefly: Inhibition of T7 bacteriophage fused human LYN at 10 uM by KINOMEscan analysis relative to control.
For experiment [16], the target named is Tyrosine-protein kinase ABL1 (Homo sapiens) (UniProt P00519). As to the kind of experiment: Inhibition of T7 bacteriophage fused human nonphosphorylated ABL1 at 10 uM by KINOMEscan analysis relative to control.
In experiment [17] the target is Calcium/calmodulin-dependent protein kinase type II subunit beta (Homo sapiens) (UniProt Q13554). As to the kind of experiment: Inhibition of T7 bacteriophage fused human CAMK2B at 10 uM by KINOMEscan analysis relative to control.
Experiment [18] concerns Phosphatidylinositol 4,5-bisphosphate 3-kinase catalytic subunit alpha isoform (Homo sapiens), P42336 [H1047L]. Briefly: Inhibition of T7 bacteriophage fused human PIK3CA H1047L mutant at 10 uM by KINOMEscan analysis relative to control.
Experiment [19] concerns Mast/stem cell growth factor receptor Kit (Homo sapiens), P10721 [A829P]. Briefly: Inhibition of T7 bacteriophage fused human KIT A829P mutant at 10 uM by KINOMEscan analysis relative to control.
For experiment [20], the system named is Mast/stem cell growth factor receptor Kit (Homo sapiens), P10721 [V559D,V654A]. As to the kind of experiment: Inhibition of T7 bacteriophage fused human KIT V559D/V654A mutant at 10 uM by KINOMEscan analysis relative to control.
The target of experiment [21] is Mitogen-activated protein kinase kinase kinase 6 (Homo sapiens) (UniProt O95382). Briefly: Inhibition of T7 bacteriophage fused human ASK2 at 10 uM by KINOMEscan analysis relative to control.
Experiment [22] concerns the target Ribosomal protein S6 kinase alpha-4 (Homo sapiens) (UniProt O75676). Briefly: Inhibition of T7 bacteriophage fused human N-terminal RPS6KA4 Kinase domain-1 at 10 uM by KINOMEscan analysis relative to control.
Experiment [23] addresses Serine/threonine-protein kinase SIK3 (Homo sapiens) (UniProt Q9Y2K2). As to the kind of experiment: Inhibition of T7 bacteriophage fused human QSK at 10 uM by KINOMEscan analysis relative to control.
For experiment [24], the target named is Calcium/calmodulin-dependent protein kinase kinase 2 (Homo sapiens) (UniProt Q96RR4). As to the kind of experiment: Inhibition of T7 bacteriophage fused human CAMKK2 at 10 uM by KINOMEscan analysis relative to control.
Experiment [25] deals with Serine/threonine-protein kinase pim-1 (Homo sapiens) (UniProt P11309). As to the kind of experiment: Inhibition of T7 bacteriophage fused human PIM1 at 10 uM by KINOMEscan analysis relative to control.
The target in experiment [26] is Phosphatidylinositol 3-kinase C2 domain-containing subunit gamma (Homo sapiens) (UniProt O75747). Briefly: Inhibition of T7 bacteriophage fused human PIK3C2G at 10 uM by KINOMEscan analysis relative to control.
Experiment [27] addresses Mitogen-activated protein kinase kinase kinase kinase 2 (Homo sapiens) (UniProt Q12851). Briefly: Inhibition of T7 bacteriophage fused human MAP4K2 at 10 uM by KINOMEscan analysis relative to control.
Experiment [28] addresses Serine/threonine-protein kinase B-raf (Homo sapiens) (UniProt P15056). As to the kind of experiment: Inhibition of T7 bacteriophage fused human BRAF at 10 uM by KINOMEscan analysis relative to control.
Experiment [29] has as its target Ribosomal protein S6 kinase alpha-1 (Homo sapiens) (UniProt Q15418). Briefly: Inhibition of RSK1 domain1 Activation Loop labeling site in human HEL cell lysate at 10 uM by KiNativ profiling analysis relative to control. The format is subcellular.
Experiment [30] deals with Serine/threonine-protein kinase A-Raf (Homo sapiens) (UniProt P10398). As to the kind of experiment: Inhibition of ARAF Lys2 labeling site in human HEL cell lysate at 10 uM by KiNativ profiling analysis relative to control. The experiment is classed as subcellular.

By inhibition is commonly meant the drop in the measured response relative to a control, in per cent.

The structures appear in SMILES notation.

3-phosphoinositide-dependent protein kinase 1 (Homo sapiens), sequence (O15530 whole entry, the tested form may be a part): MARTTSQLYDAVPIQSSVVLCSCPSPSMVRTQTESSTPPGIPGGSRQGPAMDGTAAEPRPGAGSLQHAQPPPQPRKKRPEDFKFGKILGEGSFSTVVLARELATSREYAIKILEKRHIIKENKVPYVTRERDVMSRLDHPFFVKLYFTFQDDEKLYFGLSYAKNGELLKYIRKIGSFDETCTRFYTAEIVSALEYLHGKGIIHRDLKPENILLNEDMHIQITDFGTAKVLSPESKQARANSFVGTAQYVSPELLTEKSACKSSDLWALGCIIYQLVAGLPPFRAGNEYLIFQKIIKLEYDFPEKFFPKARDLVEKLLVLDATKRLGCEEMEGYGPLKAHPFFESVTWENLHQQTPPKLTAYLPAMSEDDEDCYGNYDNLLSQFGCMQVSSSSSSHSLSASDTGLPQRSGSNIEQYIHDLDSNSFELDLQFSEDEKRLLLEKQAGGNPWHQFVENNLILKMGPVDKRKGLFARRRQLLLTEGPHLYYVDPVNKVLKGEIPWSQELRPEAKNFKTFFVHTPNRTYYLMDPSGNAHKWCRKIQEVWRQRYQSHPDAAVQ
MAP/microtubule affinity-regulating kinase 4 (Homo sapiens), sequence (Q96L34 whole entry, the tested form may be a part): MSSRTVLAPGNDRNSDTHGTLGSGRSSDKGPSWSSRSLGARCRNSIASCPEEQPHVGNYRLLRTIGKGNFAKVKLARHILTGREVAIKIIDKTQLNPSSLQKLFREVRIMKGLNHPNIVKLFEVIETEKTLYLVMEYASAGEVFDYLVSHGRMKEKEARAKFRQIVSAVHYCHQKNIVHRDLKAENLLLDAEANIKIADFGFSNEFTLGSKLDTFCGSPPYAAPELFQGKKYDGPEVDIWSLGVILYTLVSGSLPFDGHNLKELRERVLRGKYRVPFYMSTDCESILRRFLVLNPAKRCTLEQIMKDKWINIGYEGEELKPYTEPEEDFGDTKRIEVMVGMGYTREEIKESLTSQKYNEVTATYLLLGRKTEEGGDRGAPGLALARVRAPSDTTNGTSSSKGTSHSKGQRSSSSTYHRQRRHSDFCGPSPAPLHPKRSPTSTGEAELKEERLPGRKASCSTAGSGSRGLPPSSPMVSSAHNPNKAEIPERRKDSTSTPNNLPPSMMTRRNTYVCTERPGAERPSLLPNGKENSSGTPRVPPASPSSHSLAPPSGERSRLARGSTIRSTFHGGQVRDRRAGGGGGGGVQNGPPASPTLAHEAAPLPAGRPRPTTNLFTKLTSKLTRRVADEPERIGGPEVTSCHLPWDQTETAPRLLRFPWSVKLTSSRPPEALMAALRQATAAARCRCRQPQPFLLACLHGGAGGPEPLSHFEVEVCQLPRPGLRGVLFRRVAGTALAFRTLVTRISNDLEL
Serine/threonine-protein kinase 25 (Homo sapiens), sequence (O00506 whole entry, looked up, the tested form may be a part): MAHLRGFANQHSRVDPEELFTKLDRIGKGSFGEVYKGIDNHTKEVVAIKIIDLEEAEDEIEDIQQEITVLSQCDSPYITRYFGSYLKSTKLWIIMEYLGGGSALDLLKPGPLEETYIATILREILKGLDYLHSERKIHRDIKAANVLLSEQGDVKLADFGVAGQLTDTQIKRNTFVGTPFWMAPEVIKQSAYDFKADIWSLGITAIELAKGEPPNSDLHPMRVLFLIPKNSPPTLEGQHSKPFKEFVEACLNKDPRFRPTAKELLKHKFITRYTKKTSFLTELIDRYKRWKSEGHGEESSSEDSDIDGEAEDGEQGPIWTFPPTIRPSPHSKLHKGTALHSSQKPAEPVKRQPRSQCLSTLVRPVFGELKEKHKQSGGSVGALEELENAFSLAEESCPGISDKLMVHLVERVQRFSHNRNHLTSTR
Ribosomal protein S6 kinase alpha-4 (Homo sapiens), sequence (O75676 whole entry, looked up, the tested form may be a part): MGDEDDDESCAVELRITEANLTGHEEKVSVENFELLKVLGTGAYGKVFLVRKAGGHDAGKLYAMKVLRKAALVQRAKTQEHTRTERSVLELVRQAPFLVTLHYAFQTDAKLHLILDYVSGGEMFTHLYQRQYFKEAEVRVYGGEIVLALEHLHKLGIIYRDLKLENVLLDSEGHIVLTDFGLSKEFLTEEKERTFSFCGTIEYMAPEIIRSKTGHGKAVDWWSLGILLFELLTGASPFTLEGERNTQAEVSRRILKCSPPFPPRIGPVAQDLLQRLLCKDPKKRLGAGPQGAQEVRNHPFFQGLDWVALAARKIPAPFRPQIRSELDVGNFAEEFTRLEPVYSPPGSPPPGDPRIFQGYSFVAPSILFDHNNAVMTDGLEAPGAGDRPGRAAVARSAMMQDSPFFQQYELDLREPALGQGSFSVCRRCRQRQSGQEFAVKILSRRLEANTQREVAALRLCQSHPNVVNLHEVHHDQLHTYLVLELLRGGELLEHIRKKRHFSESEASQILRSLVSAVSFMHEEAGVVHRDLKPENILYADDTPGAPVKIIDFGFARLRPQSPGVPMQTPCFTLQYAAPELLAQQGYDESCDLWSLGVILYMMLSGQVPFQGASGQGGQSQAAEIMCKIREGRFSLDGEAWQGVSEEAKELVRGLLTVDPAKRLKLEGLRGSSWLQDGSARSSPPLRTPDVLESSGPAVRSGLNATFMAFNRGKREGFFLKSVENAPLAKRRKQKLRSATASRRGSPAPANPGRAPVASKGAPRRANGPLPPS
Cyclin-dependent kinase-like 1 (Homo sapiens), sequence (Q00532 whole entry, the tested form may be a part): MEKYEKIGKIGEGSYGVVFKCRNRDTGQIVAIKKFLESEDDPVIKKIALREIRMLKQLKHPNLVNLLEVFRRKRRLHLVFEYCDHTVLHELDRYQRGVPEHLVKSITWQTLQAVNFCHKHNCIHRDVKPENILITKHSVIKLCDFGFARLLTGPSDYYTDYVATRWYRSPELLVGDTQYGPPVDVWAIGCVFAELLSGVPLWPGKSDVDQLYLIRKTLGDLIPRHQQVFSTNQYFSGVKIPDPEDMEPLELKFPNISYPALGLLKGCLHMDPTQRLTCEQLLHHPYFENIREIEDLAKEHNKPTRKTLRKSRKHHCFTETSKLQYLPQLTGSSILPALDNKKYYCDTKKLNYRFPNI
Mitogen-activated protein kinase kinase kinase kinase 2 (Homo sapiens), sequence (Q12851 whole entry, the tested form may be a part): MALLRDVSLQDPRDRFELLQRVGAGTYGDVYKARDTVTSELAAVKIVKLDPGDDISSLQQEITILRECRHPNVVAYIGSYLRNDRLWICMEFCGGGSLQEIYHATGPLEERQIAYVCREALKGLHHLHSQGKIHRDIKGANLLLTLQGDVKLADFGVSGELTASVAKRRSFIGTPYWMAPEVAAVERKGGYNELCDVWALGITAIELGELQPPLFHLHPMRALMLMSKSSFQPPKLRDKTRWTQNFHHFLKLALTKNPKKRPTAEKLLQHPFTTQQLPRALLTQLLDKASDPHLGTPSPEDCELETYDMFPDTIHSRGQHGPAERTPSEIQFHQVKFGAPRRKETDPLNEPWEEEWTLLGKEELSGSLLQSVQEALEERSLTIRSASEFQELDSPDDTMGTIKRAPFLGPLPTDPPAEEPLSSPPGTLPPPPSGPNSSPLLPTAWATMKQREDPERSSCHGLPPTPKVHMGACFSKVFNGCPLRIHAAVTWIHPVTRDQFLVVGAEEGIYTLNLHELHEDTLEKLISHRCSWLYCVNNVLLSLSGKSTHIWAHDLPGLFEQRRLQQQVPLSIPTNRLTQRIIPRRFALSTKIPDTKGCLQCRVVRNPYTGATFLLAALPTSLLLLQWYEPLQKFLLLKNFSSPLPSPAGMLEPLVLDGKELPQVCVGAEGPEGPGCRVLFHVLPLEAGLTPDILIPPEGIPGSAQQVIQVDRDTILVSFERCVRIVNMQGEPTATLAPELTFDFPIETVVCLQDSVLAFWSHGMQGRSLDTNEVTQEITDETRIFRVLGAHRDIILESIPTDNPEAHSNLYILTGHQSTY
Phosphatidylinositol 4,5-bisphosphate 3-kinase catalytic subunit alpha isoform (Homo sapiens), P42336 [H1047L], sequence (P42336 whole entry H1047L, the tested form may be a part, canonical isoform): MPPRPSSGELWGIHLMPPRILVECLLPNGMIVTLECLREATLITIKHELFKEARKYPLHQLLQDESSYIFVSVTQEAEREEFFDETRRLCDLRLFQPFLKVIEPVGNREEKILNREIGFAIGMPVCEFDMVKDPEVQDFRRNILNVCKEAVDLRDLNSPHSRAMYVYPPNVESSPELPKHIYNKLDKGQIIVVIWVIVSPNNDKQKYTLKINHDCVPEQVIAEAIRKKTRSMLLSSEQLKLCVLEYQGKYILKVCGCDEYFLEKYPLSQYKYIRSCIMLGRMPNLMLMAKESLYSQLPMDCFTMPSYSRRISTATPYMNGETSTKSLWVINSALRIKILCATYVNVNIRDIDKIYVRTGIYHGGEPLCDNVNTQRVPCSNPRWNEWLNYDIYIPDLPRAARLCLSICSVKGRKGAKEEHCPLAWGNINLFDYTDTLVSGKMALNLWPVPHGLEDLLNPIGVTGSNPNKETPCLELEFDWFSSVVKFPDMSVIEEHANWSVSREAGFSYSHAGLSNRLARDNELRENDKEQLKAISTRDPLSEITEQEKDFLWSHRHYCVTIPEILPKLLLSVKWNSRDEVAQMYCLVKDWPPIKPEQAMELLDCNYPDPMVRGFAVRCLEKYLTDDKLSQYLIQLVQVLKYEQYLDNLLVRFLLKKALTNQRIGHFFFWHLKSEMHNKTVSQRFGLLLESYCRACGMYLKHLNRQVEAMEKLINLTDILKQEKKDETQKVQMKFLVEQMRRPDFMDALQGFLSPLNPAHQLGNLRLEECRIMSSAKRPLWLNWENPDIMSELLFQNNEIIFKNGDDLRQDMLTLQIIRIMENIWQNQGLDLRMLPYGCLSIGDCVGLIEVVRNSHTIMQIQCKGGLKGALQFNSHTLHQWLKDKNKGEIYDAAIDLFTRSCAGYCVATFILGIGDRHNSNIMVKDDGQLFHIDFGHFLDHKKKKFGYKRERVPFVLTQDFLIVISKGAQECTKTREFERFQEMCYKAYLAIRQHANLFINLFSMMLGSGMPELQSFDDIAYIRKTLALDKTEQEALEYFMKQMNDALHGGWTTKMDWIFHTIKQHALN

As to `COc1cc(N2CCC(N3CCN(C)CC3)CC2)ccc1Nc1ncc2c(n1)N(C)c1ccccc1C(=O)N2C`, the inhibition in experiment [1] was 78%; in experiment [2] it was 100%; in experiment [3], 68%; in experiment [5] it was 14%; in experiment [6], 100%; in [10], 77%. Besides, the inhibition in [12] is 59%; in experiment [13], 100%; in experiment [14] it was 93%; in experiment [15] it was 100%; in experiment [16] it was 100%; in experiment [17] it was 62%. In addition, the inhibition was determined as 20% in experiment [18]; 100% in [19]; 100% in experiment [20]; 100% in [21]; 100% in experiment [22]; 100% in experiment [23]. The inhibition in experiment [24] came to 31%; in experiment [25] it was 100%; in experiment [26], 100%; in [27] it was 100%; in experiment [28], 81%. Besides, the residual activity in experiment [4] worked out at 98%; in experiment [7], 32%; in experiment [8], 78%; in experiment [9] it was 95%; in [11], 90%.

As to `COc1cc(C(=O)N2CCC(N3CCN(C)CC3)CC2)ccc1Nc1ncc2c(n1)N(C1CCCC1)c1ccccc1C(=O)N2C`, the figures for the inhibition in experiment [29] and in [30] were 0.2% and -0.7%, respectively.
